# Key:
# [1] = test system: PI3Kα (IGF-1-stimulated MEF cells); assay: IGF-1-induced Akt phosphorylation in MEF cells; type: cell-based, murine; conditions: up to 0.5 μM; IGF-1 100 ng/ml; 1 h pre-incubation
# Procedure: In fibroblasts, signals from the insulin-like growth factor 1 (IGF-1) receptor are mediated by PI3Kα, while lysophosphatidic acid (LPA) stimulates G-protein coupled receptor (GPCR) signals via PI3Kβ[26]. After being pre-incubated with X-370, murine embryonic fibroblasts cultured in serum-free medium were stimulated with IGF-1 or LPA. […] Either PI3Kδ or PI3Kγ can be activated in THP-1 monocytes dependent on the stimulating ligand, among which macrophage colony stimulating factor (M-CSF/CSF-1) activates RTK-coupled PI3Kδ, while monocyte chemoattractant protein-1 (MCP-1) activates PI3Kγ [24]. Accordingly, THP-1 cells cultured in serum-free medium were stimulated with MCP-1 or M-CSF in the presence of X-370 and phosphorylated Akt was measured.
# Cell lysates were probed with indicated antibodies. The IC50 values were calculated based on relative band intensity measured with ImageQuant™ TL (GE Healthcare Life Sciences, Piscataway, NJ) (B). Data shown are mean values from three independent experiments. (C, D, E, F) X-370 blocked stimuli-triggered PI3Kδ activation. MEF cells and THP-1 were starved in serum-free medium for 12 h or 4 h respectively and X-370 were added for an additional 1 h treatment following stimulation of IGF-1 at 100 ng/ml for MEF cells (C), LPA at 10 μM for MEF cells (D), MCP-1 at 100ng/ml for THP-1 (E) and M-CSF at 50 ng/ml for THP-1 (F). […]
# PI3Kδ = PI3Kδ (Homo sapiens, UniProt O00329); assay: PI3-Kinase HTRF assay with increasing ATP; type: biochemical; set-up: GST; made in house; host or cells: Sf9 insect cells; conditions: IC50 increasing in concert with ATP levels
# Text: Utilizing the crystal structure of PI3Kδ, we designed and synthesized a series of compounds in an effort to discover new potent and selective PI3Kδ inhibitors, which bind to PI3Kδ differently from CAL-101. […] The benzimidazole group of X-370 extends into the affinity pocket, where its nitrogen acts as a hydrogen bond acceptor for the primary amine of Lys779. The difluoromethyl group of X-370 points toward Pro758 in the hydrophobic affinity pocket. Instead of wedging between Met752 and Trp760, a binding mode utilized by CAL-101 to generate specificity against PI3Kδ (Figure S1), the pyrrole group of X-370 presses tightly against Trp760. These specific interactions of X-370 with p110δ confer a selective and potent inhibition of PI3Kδ. As expected, X-370 inhibited the kinase activity of PI3Kδ in an ATP-competitive manner, with IC50 increasing in concert with ATP levels (Figure 1C), confirming the binding of X-370 in the ATP pocket. […] More than 1000-fold selectivity was seen against other lipid kinases tested including PI3KC2α, PI3KC2γ, PIP4K2α, PIP5K1α and PIP5K1γ. […]
# In vitro kinase profile assays were analyzed by the Kinase Profiler Service (Millipore, United Kingdom) following its guidelines. […] The PI3K kinase activity was determined in the increasing concentration of ATP and X-370 with PI3-Kinase HTRF™ Assay kit (Millipore) as described previously.
# PI3Kα = target: T1, PI3Kα (Homo sapiens, UniProt P42336); assay: Kinase Profiler lipid kinase IC50; type: biochemical; conditions: ATP at Km of the isoform; 10-point half-log dilution from 1000 nM
# T1 construct: purchased Millipore (Kinase Profiler Services, United Kingdom)
# Procedure: (§1) Figure 1 Structure of X-370 and its inhibitory activity against lipid kinases (A) Chemical structure of X-370. (B) X-370 docked to the crystal structure of PI3Kδ. The model was generated based on the co-crystal structure of PI3Kδ and ZSTK474 (PDB ID: 2WXL). (C) IC50 of X-370 against PI3Kδ increased along with ATP concentration. […] Data was obtained from Kinase Profiler Services (Millipore, United Kingdom). Briefly, X-370 was solved in DMSO at a concentration of 10 mM, 10-point kinase inhibitory activity was measured over concentrations in a half-log dilution series started at 1000 nM with ATP at a concentration consistent with Km of each isoform of class I PI3K and IC50s were calculated. Relative kinase activity in the presence of 10 μM X-370 compared to DMSO control was measured for the rest of lipid kinases. TEXT PRINTED IN THE PICTURE: (D) X-370: IC50 (nM): 7 (Isoform: PI3Kδ); IC50 (nM): 433 (Isoform: PI3Kα); IC50 (nM): >1,000 (Isoform: PI3Kγ); IC50 (nM): >1,000 (Isoform: PI3Kβ); Relative Activity (%) X-370 (10 μM): 55 (Lipid Kinases: PI3KC2α); Relative Activity (%) X-370 (10 μM): 63 (Lipid Kinases: PI3KC2γ); Relative Activity (%) X-370 (10 μM): 105 (Lipid Kinases: PIP4K2α); Relative Activity (%) X-370 (10 μM): 100 (Lipid Kinases: PIP5K1α); Relative Activity (%) X-370 (10 μM): 103 (Lipid Kinases: PIP5K1γ) DOUBTS OF THE COPYIST ABOUT THIS PICTURE: Panel D, left table (Isoform / IC50): no substance label is printed in this table; assigned to X-370, the only label printed in the panel (head of the right table)
# (§2) In vitro kinase profile assays were analyzed by the Kinase Profiler Service (Millipore, United Kingdom) following its guidelines. A GST-tagged human p110δ and regulatory full-length p85 were co-expressed in insect cell Sf9. Recombinant protein was extracted by affinity purification. The PI3K kinase activity was determined in the increasing concentration of ATP and X-370 with PI3-Kinase HTRF™ Assay kit (Millipore) as described previously.
# PI3Kγ = target: T2, PI3Kγ (Homo sapiens, UniProt P48736); assay: Kinase Profiler lipid kinase IC50; type: biochemical; conditions: ATP at Km of the isoform; 10-point half-log dilution from 1000 nM
# T2 construct: purchased Millipore (Kinase Profiler Services, United Kingdom)
# Procedure: as §1, §2
# PI3Kδ, sequence (O00329 whole entry): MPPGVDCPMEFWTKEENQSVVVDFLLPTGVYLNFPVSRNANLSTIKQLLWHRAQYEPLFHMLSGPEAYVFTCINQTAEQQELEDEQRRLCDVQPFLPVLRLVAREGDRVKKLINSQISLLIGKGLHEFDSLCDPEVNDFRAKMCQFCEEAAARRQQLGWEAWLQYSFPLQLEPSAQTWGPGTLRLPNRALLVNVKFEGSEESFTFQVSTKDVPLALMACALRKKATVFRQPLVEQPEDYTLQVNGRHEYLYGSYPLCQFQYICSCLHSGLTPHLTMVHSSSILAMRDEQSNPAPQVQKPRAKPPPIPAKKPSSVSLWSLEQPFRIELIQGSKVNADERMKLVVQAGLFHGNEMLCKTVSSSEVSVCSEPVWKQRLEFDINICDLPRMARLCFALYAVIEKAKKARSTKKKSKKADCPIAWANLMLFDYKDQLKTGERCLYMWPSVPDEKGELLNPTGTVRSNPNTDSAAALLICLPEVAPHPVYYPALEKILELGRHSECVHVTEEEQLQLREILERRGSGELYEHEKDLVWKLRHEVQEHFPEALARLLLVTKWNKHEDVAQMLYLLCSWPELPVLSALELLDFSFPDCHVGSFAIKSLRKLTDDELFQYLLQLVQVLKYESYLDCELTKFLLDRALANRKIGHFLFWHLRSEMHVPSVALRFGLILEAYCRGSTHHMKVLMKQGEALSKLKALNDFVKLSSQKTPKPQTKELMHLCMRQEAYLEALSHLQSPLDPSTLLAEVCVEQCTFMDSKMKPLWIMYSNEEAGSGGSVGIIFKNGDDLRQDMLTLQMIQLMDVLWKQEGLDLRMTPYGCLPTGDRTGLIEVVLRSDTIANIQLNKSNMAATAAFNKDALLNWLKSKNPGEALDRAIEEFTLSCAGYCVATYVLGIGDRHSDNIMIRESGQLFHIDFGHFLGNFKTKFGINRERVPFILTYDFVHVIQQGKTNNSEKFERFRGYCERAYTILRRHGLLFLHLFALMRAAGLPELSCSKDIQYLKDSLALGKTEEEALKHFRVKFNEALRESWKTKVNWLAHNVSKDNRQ
# PI3Kδ, sequence (P27986 whole entry partner): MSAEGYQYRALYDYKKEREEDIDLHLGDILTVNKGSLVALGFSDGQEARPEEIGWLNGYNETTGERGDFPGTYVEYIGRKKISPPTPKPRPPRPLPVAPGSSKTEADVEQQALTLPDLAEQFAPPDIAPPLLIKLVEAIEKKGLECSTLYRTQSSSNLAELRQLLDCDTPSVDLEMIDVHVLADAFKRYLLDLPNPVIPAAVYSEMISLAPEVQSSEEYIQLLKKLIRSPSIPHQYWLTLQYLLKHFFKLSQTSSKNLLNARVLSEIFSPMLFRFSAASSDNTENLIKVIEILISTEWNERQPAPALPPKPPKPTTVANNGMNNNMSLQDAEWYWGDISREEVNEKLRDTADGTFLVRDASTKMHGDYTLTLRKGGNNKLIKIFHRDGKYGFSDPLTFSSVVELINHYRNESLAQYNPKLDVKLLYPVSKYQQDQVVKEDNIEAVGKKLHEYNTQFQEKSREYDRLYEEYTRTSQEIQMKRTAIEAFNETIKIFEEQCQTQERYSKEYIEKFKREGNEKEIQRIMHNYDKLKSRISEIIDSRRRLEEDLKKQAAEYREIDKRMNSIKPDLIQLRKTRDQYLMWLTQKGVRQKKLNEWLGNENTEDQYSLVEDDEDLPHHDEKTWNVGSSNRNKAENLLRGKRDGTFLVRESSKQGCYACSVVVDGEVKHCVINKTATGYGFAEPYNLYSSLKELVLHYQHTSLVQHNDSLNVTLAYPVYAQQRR
# T2 sequence (P48736 whole entry, canonical isoform): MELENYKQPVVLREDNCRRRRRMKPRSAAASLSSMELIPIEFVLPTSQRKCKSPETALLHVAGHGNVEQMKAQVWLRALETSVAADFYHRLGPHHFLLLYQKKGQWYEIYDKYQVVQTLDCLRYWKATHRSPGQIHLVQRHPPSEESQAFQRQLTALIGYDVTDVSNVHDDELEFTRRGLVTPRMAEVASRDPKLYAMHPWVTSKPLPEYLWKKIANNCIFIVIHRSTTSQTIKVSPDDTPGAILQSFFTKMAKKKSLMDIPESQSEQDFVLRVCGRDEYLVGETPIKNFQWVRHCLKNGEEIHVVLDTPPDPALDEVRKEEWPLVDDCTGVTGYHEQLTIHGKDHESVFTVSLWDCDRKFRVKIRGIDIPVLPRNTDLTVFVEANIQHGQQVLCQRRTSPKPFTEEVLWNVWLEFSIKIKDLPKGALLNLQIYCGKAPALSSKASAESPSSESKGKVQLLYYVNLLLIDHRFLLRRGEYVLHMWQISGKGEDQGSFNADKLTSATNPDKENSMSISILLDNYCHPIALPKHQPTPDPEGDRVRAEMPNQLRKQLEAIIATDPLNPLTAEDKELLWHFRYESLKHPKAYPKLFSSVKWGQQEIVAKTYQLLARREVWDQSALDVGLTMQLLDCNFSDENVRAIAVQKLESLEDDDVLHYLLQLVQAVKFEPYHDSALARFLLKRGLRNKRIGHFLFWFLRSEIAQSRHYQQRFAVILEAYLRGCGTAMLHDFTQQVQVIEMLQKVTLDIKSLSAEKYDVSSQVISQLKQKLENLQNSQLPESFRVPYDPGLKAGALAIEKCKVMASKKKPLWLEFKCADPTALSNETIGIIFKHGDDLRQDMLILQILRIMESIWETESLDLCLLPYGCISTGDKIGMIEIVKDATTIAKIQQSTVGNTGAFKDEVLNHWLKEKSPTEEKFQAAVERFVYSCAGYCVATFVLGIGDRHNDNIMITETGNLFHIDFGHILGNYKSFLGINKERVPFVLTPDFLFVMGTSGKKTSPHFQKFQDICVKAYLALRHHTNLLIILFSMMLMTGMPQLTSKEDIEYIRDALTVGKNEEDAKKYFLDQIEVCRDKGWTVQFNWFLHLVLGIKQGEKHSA
# T1 sequence (P42336 whole entry, canonical isoform): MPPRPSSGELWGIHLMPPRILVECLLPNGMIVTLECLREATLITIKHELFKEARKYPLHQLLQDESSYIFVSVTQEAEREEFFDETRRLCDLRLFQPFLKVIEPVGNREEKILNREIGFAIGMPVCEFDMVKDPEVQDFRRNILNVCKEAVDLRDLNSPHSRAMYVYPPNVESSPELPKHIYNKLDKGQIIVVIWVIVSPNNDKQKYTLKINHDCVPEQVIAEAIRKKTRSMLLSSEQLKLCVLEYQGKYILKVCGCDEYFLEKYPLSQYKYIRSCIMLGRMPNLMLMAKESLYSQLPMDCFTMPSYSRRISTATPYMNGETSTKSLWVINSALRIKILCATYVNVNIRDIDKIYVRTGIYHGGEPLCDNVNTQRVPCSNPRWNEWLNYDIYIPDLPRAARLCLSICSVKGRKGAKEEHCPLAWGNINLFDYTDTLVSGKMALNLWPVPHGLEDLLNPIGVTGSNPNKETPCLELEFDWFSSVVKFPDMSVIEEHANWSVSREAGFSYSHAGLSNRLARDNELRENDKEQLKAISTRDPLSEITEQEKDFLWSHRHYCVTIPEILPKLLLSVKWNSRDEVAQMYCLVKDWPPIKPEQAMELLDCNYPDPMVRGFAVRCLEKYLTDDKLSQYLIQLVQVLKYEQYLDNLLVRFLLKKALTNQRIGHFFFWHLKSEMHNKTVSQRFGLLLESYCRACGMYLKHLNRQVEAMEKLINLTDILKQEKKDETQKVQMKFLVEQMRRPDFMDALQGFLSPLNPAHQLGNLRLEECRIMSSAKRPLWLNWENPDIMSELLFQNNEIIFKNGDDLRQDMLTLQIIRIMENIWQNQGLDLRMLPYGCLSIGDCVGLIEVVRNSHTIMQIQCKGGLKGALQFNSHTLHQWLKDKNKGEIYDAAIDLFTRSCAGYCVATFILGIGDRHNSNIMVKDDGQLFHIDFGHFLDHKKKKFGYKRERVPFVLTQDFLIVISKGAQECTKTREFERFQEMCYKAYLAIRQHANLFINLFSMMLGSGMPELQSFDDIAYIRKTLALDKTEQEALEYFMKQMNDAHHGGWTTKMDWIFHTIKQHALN
# T1 sequence (P27986 whole entry partner, canonical isoform): as the sequence (P27986 whole entry partner) above
compound,measurement,setting,value
O=C(N1CCCC1)N1CCC(n2cnc3c(-n4c(C(F)F)nc5ccccc54)nc(N4CCOCC4)nc32)CC1 [X-370],IGF-1-induced Akt phosphorylation,[1],partially inhibited
same,manner of inhibition of PI3Kδ kinase activity,PI3Kδ,ATP-competitive
same,IC50,PI3Kα,433 nM
same,IC50,PI3Kγ,> 1000 nM
